Measured values from ChEMBL document CHEMBL2010722, “Structure-activity relationship study of beta-carboline derivatives as haspin kinase inhibitors” (Bioorg Med Chem Lett, 2012).

How the values were obtained:
[1] = target: Serine/threonine-protein kinase Nek1 (Homo sapiens) (UniProt Q96PY6); assay: Inhibition of NEK1 at 10 uM
[2] = target: CDK9/cyclin T1 (Homo sapiens) (UniProt O60563+P50750); assay: Inhibition of CDK9-CycT1 at 10 uM; format: protein-complex assay
[3] = target: Mitogen-activated protein kinase kinase kinase kinase 4 (Homo sapiens) (UniProt O95819); assay: Inhibition of HGK at 10 uM
[4] = target: Sphingosine kinase 1 (Homo sapiens) (UniProt Q9NYA1); assay: Inhibition of SPHK1 at 10 uM
Chain of Sphingosine kinase 1 (Homo sapiens) (Q9NYA1 whole entry): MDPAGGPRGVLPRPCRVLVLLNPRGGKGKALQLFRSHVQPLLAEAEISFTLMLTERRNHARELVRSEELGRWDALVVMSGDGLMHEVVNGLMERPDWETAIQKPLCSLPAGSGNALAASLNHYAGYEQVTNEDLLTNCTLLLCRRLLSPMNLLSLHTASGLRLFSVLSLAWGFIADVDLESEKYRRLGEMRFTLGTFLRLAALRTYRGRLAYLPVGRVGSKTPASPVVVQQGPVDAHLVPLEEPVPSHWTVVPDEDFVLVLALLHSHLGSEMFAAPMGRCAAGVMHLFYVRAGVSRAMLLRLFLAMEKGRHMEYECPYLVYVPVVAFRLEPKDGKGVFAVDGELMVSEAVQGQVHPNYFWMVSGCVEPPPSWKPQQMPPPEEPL

[5] = target: Ephrin type-A receptor 2 (Homo sapiens) (UniProt P29317); assay: Inhibition of EPHA2 at 10 uM
[6] = target: Rho-associated protein kinase 2 (Homo sapiens) (UniProt O75116); assay: Inhibition of ROCK2 at 10 uM
[7] = target: cGMP-dependent protein kinase 1 (Homo sapiens) (UniProt Q13976); assay: Inhibition of PRKG1 at 10 uM
[8] = target: Mitogen-activated protein kinase 9 (Homo sapiens) (UniProt P45984); assay: Inhibition of JNK2 at 10 uM
[9] = target: Misshapen-like kinase 1 (Homo sapiens) (UniProt Q8N4C8); assay: Inhibition of MINK at 10 uM
[10] = target: Ribosomal protein S6 kinase beta-2 (Homo sapiens) (UniProt Q9UBS0); assay: Inhibition of p70S6Kb at 10 uM
[11] = target: Non-receptor tyrosine-protein kinase TYK2 (Homo sapiens) (UniProt P29597); assay: Inhibition of TYK2 at 10 uM
[12] = target: Vascular endothelial growth factor receptor 1 (Homo sapiens) (UniProt P17948); assay: Inhibition of FLT1 at 10 uM
Chain of Vascular endothelial growth factor receptor 1 (Homo sapiens) (P17948 whole entry): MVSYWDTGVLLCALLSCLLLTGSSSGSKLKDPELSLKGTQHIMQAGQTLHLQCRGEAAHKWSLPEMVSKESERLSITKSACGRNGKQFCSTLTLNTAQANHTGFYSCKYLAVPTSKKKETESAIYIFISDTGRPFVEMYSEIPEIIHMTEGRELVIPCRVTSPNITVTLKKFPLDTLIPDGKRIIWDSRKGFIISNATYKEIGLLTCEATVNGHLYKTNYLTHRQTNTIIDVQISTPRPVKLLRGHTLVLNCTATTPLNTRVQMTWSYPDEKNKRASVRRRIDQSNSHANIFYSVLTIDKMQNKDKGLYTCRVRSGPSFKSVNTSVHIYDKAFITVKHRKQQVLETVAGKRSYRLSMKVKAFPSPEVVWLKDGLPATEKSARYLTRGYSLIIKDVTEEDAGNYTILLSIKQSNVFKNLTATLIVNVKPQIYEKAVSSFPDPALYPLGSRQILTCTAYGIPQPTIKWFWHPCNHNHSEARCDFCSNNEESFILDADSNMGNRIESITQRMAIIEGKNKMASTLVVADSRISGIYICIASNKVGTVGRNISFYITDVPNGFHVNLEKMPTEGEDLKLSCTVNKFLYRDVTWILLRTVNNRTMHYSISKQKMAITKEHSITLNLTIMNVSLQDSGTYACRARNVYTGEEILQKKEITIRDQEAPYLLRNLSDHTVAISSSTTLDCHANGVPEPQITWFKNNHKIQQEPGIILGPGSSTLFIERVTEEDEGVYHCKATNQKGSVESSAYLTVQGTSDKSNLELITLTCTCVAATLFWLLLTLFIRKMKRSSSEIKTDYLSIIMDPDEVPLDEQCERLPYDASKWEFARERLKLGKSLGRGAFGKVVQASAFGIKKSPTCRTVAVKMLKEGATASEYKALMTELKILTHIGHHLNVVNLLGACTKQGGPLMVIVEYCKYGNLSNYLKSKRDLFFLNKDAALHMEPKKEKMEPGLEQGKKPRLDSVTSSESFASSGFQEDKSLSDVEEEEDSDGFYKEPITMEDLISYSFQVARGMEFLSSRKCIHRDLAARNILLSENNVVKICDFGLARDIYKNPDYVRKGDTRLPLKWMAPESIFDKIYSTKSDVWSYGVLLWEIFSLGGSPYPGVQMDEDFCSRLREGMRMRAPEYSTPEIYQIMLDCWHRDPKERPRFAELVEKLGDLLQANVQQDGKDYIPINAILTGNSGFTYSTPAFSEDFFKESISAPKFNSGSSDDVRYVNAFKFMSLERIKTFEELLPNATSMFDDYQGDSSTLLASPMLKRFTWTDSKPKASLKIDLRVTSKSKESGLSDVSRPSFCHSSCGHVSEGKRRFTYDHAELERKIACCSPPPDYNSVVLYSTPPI

[13] = target: Serine/threonine-protein kinase PLK4 (Homo sapiens) (UniProt O00444); assay: Inhibition of PLK4 at 10 uM
[14] = target: Mitogen-activated protein kinase kinase kinase 11 (Homo sapiens) (UniProt Q16584); assay: Inhibition of MLK3 at 10 uM
[15] = target: Serine/threonine-protein kinase pim-1 (Homo sapiens) (UniProt P11309); assay: Inhibition of PIM1 at 10 uM
[16] = target: Tyrosine-protein kinase HCK (Homo sapiens) (UniProt P08631); assay: Inhibition of HCK at 10 uM
[17] = tested on: Mast/stem cell growth factor receptor Kit (Homo sapiens), P10721 [V560G]; assay: Inhibition of KIT V560G mutant at 10 uM
[18] = target: Phosphorylase b kinase gamma catalytic chain, liver/testis isoform (Homo sapiens) (UniProt P15735); assay: Inhibition of PHKG2 at 10 uM
[19] = target: MAP kinase-interacting serine/threonine-protein kinase 1 (Homo sapiens) (UniProt Q9BUB5); assay: Inhibition of MNK1 at 10 uM
[20] = target: Casein kinase I isoform gamma-2 (Homo sapiens) (UniProt P78368); assay: Inhibition of CK1g2 at 10 uM
Chain of Casein kinase I isoform gamma-2 (Homo sapiens) (P78368 whole entry, looked up, canonical isoform): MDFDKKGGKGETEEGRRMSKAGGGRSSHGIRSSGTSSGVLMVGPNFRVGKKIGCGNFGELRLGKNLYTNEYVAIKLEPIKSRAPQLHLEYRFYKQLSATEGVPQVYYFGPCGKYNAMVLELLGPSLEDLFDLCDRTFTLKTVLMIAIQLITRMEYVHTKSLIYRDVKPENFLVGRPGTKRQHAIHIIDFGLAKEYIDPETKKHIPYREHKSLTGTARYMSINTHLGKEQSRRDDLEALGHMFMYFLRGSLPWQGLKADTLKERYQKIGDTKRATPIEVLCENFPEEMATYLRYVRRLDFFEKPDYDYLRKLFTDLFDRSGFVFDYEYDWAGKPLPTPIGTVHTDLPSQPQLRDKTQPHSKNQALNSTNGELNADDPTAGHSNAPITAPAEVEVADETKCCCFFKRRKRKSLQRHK

[21] = target: Homeodomain-interacting protein kinase 2 (Homo sapiens) (UniProt Q9H2X6); assay: Inhibition of HIPK2 at 10 uM
[22] = target: Glycogen synthase kinase-3 alpha (Homo sapiens) (UniProt P49840); assay: Inhibition of GSK3a at 10 uM
[23] = target: Serine/threonine-protein kinase Chk1 (Homo sapiens) (UniProt O14757); assay: Inhibition of CHK1 at 10 uM
[24] = target: Interleukin-1 receptor-associated kinase 1 (Homo sapiens) (UniProt P51617); assay: Inhibition of IRAK1 at 10 uM
[25] = target: Casein kinase I isoform gamma-1 (Homo sapiens) (UniProt Q9HCP0); assay: Inhibition of CK1g1 at 10 uM
[26] = target: Casein kinase I isoform alpha (Homo sapiens) (UniProt P48729); assay: Inhibition of CK1a at 10 uM
[27] = target: Hepatocyte growth factor receptor (Homo sapiens) (UniProt P08581); assay: Inhibition of MET at 10 uM
Chain of Hepatocyte growth factor receptor (Homo sapiens) (P08581 whole entry): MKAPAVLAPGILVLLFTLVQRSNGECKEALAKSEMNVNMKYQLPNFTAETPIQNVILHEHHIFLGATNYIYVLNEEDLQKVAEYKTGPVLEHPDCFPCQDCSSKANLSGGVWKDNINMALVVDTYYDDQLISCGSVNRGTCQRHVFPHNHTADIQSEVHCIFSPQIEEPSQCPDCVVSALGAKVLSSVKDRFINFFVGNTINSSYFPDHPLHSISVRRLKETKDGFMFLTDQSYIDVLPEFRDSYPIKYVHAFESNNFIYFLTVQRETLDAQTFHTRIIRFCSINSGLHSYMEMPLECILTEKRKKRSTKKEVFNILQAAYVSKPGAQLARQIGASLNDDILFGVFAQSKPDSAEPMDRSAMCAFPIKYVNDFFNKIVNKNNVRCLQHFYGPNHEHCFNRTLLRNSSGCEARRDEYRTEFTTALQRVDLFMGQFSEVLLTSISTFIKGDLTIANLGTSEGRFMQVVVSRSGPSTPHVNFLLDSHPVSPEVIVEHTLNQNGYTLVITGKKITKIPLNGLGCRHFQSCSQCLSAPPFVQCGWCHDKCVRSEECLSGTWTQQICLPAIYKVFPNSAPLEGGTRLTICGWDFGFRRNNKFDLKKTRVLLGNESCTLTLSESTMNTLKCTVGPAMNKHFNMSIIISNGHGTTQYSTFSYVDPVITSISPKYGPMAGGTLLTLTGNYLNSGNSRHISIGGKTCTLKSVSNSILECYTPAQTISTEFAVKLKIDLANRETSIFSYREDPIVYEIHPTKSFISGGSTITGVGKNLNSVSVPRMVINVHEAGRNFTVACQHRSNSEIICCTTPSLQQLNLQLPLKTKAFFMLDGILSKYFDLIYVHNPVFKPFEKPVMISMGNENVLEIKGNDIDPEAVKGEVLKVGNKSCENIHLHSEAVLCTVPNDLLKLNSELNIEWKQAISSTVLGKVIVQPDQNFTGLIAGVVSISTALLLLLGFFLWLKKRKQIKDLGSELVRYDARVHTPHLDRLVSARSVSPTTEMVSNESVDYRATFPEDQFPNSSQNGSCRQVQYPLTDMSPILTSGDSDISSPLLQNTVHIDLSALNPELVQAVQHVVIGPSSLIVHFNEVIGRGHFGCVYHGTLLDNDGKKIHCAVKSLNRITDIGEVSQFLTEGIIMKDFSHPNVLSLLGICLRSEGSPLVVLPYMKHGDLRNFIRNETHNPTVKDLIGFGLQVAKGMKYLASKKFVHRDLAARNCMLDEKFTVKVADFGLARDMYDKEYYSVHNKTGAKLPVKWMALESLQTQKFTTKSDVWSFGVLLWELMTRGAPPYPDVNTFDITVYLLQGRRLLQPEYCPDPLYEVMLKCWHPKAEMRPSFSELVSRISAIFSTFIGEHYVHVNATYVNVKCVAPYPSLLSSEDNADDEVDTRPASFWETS

[28] = target: Bone morphogenetic protein receptor type-1A (Homo sapiens) (UniProt P36894); assay: Inhibition of BMPR1A at 10 uM
[29] = target: Aurora kinase B/Inner centromere protein (Homo sapiens) (UniProt Q96GD4+Q9NQS7); assay: Inhibition of AurB-INCENP at 10 uM; format: protein-complex assay
[30] = target: RAC-gamma serine/threonine-protein kinase (Homo sapiens) (UniProt Q9Y243); assay: Inhibition of AKT3 at 10 uM
[31] = target: Ribosomal protein S6 kinase alpha-1 (Homo sapiens) (UniProt Q15418); assay: Inhibition of RSK1 N-terminal at 10 uM
[32] = target: Mitogen-activated protein kinase 3 (Homo sapiens) (UniProt P27361); assay: Inhibition of Erk1 at 10 uM
[33] = target: Tyrosine-protein kinase SYK (Homo sapiens) (UniProt P43405); assay: Inhibition of SYK at 10 uM
[34] = target: Serine/threonine-protein kinase B-raf (Homo sapiens) (UniProt P15056); assay: Inhibition of BRAF at 10 uM
[35] = target: Casein kinase I isoform epsilon (Homo sapiens) (UniProt P49674); assay: Inhibition of CK1e at 10 uM
[36] = target: Serine/threonine-protein kinase D3 (Homo sapiens) (UniProt O94806); assay: Inhibition of PKD3 at 10 uM
[37] = target: Myosin light chain kinase 2, skeletal/cardiac muscle (Homo sapiens) (UniProt Q9H1R3); assay: Inhibition of skMLCK at 10 uM
[38] = tested on: ALK tyrosine kinase receptor (Homo sapiens), Q9UM73 [F1174L]; assay: Inhibition of ALK F1174L mutant at 10 uM
[39] = target: Serine/threonine-protein kinase PAK 5 (Homo sapiens) (UniProt Q9P286); assay: Inhibition of PAK5 (PAK7) at 10 uM
Chain of Serine/threonine-protein kinase PAK 5 (Homo sapiens) (Q9P286 whole entry, looked up): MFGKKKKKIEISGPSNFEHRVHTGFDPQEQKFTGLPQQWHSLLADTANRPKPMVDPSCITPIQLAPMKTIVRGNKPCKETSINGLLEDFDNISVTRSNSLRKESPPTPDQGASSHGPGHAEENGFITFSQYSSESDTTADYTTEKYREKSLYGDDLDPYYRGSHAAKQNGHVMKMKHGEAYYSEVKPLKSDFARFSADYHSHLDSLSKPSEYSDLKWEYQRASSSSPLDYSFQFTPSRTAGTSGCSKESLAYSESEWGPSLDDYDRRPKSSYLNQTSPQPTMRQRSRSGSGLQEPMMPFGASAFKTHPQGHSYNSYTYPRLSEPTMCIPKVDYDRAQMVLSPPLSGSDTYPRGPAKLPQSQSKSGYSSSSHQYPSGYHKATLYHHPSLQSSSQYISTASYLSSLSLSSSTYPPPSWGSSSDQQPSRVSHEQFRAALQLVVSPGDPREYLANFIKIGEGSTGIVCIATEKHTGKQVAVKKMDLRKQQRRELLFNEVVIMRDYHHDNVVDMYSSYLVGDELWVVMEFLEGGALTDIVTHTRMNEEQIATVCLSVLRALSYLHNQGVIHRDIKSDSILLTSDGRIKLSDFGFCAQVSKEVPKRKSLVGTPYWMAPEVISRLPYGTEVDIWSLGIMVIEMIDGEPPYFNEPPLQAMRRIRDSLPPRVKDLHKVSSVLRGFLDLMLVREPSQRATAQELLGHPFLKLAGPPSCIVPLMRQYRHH

[40] = target: Serine/threonine-protein kinase PAK 1 (Homo sapiens) (UniProt Q13153); assay: Inhibition of PAK1 at 10 uM
Chain of Serine/threonine-protein kinase PAK 1 (Homo sapiens) (Q13153 whole entry): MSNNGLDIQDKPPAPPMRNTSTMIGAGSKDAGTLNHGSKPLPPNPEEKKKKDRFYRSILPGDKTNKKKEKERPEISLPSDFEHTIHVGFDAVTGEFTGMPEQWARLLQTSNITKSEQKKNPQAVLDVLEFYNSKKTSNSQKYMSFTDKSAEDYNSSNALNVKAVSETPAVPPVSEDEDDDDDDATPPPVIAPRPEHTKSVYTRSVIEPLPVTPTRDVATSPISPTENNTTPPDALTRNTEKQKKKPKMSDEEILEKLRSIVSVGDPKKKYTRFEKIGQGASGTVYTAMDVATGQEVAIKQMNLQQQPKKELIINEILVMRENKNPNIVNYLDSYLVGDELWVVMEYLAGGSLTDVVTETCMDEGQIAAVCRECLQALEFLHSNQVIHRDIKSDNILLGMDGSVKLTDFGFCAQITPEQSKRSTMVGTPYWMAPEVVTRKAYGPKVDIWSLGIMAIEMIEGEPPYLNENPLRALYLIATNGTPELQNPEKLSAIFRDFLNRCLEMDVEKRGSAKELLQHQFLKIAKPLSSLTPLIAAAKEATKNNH

[41] = target: Tyrosine-protein kinase Fes/Fps (Homo sapiens) (UniProt P07332); assay: Inhibition of FES at 10 uM
[42] = target: Serine/threonine-protein kinase Chk2 (Homo sapiens) (UniProt O96017); assay: Inhibition of CHK2 at 10 uM

In the case of COc1ccc2c3ccnc(C(F)(F)F)c3n(CCCCN)c2c1, the inhibition [1] is reported as 5%, the inhibition [2] is reported as 79% and the inhibition [3] is reported as 62%. The inhibition [4] was 0%, the inhibition [5] was 0% and the inhibition [6] was 87%. The inhibition [7] was 80%, the inhibition [8] was 8% and the inhibition [9] was 17%. For the same molecule, the inhibition [10] was 75%, the inhibition [11] was 15% and the inhibition [12] was 8%. It also gave an inhibition [13] of 22%, an inhibition [14] of 3% and an inhibition [15] of 91%. It also gave an inhibition [16] of 1%, an inhibition [17] of 16% and an inhibition [18] of 26%. For the same molecule, the inhibition [19] was 37%, the inhibition [20] was 60% and the inhibition [21] was 53%. It also gave an inhibition [22] of 48%, an inhibition [23] of 25% and an inhibition [24] of 53%. The inhibition [25] was 66%, the inhibition [26] was 73% and the inhibition [27] was 4%. For the same molecule, the inhibition [28] was 35%, the inhibition [29] was 5% and the inhibition [30] was 12%. It also gave an inhibition [31] of 27%, an inhibition [32] of 2% and an inhibition [33] of 0%. The inhibition [34] was 0%, the inhibition [35] was 41% and the inhibition [36] was 92%. The inhibition [37] was 34%, the inhibition [38] was 9% and the inhibition [39] was 6%. It also gave an inhibition [40] of 3%, an inhibition [41] of 4% and an inhibition [42] of 27%.
